Test results published in patent US5196437A, “Method for treating hepatic diseases and regenerating liver tissue using FK 506 and related compounds” (Fujisawa Pharmaceutical Company, Ltd., priority 1990, dated 1993).

Test system: midzonal hepatocytes
Test: Eck fistula dogs, left portal vein infusion: electron microscopy of hepatocyte organelles
Type: in vivo, dog (beagle)
Conditions: for Organelle volume in average midzonal hepatocytes, Microbodies, Right / Organelle volume in average midzonal hepatocytes, Mitochondria, Right / Area of rough endoplasmic reticulum per average midzonal hepatocyte, Right / Area of smooth endoplasmic reticulum per average midzonal hepatocyte, Right / Organelle volume in average midzonal hepatocytes, Lipids, Right / Organelle volume in average midzonal hepatocytes, Lysosomes, Right: right lobe; for Organelle volume in average midzonal hepatocytes, Microbodies, Right / Organelle volume in average midzonal hepatocytes, Mitochondria, Right / Area of rough endoplasmic reticulum per average midzonal hepatocyte, Right / Area of smooth endoplasmic reticulum per average midzonal hepatocyte, Right / Organelle volume in average midzonal hepatocytes, Lysosomes, Left / Organelle volume in average midzonal hepatocytes, Lipids, Left / Organelle volume in average midzonal hepatocytes, Microbodies, Left / Organelle volume in average midzonal hepatocytes, Mitochondria, Left / Area of rough endoplasmic reticulum per average midzonal hepatocyte, Left / Area of smooth endoplasmic reticulum per average midzonal hepatocyte, Left / Organelle volume in average midzonal hepatocytes, Lipids, Right / Organelle volume in average midzonal hepatocytes, Lysosomes, Right: mean +/- SD; for Organelle volume in average midzonal hepatocytes, Lysosomes, Left / Organelle volume in average midzonal hepatocytes, Lipids, Left / Organelle volume in average midzonal hepatocytes, Microbodies, Left / Organelle volume in average midzonal hepatocytes, Mitochondria, Left / Area of rough endoplasmic reticulum per average midzonal hepatocyte, Left / Area of smooth endoplasmic reticulum per average midzonal hepatocyte, Left: left (infused) lobe
Description: Twenty adult female beagle dogs underwent Eck fistula (Starzl et al, Lancet, 1976, 1:821-25). After performing a large side to side portacaval shunt, the left and right portal vein branches were ligated. A small infusion catheter was tied into the left branch and led through the abdominal wall and subcutaneously to a battery charged infusion pump that was incorporated into a non-restraining body cast. A constant infusion was started of the control or test fluids at the volume of 20 to 30 ml/day. Oral fluids and diet were allowed ad lib. Four days later, the animals were administered 0.2 mCi/kg (CH3 -^3 H)-thymidine with specific activity of 80-90 Ci/MMol (New England Nuclear, Boston). Two hours later, the dogs were anesthetized and killed.
For studies of the organelles, small cubes of each hepatic sample were taken for electron microscopy. The tissue was post-fixed in glutaraldehyde followed by osmic acid. After embedding in Polarbed. 812 resin, ultrathin sections were cut, stained with lead citrate and examined in a Philip's 300 electron microscope. Measurements of the organelles were made on electron micrographs by Loud's method (Loud, J Cell Biol, 1968, 37:27-46).
Results are expressed as mean±standard deviation (SD). The Student's t-test was employed in individual experimental groups to compare differences between right and left lobes or between groups. A p value less than 0.05 was considered to be significant.

C=CCC1C=C(C)CC(C)CC(OC)C2OC(O)(C(=O)C(=O)N3CCCCC3C(=O)OC(C(C)=CC3CCC(O)C(OC)C3)C(C)C(O)CC1=O)C(C)CC2OC (centres unmarked) [FK 506]
Organelle volume in average midzonal hepatocytes, Microbodies, Right (0.01 mg/kg/day): 173.8 +/- 39.6 uM^3 | Organelle volume in average midzonal hepatocytes, Mitochondria, Right (0.01 mg/kg/day): 1429.5 +/- 331.2 uM^3 | Area of rough endoplasmic reticulum per average midzonal hepatocyte, Right (0.01 mg/kg/day, p vs vehicle 0.0019): 18697 +/- 1010 uM^2 | Area of smooth endoplasmic reticulum per average midzonal hepatocyte, Right (0.01 mg/kg/day, p vs vehicle 0.1092): 23337 +/- 902 uM^2 | Organelle volume in average midzonal hepatocytes, Lysosomes, Left (0.1 mg/kg/day, left vs right p 0.0000): 59.6 +/- 15.6 uM^3 | Organelle volume in average midzonal hepatocytes, Lipids, Left (0.1 mg/kg/day, left vs right p 0.0011): 22.8 +/- 6.7 uM^3 | Organelle volume in average midzonal hepatocytes, Microbodies, Left (0.1 mg/kg/day, left vs right p 0.0025): 86.3 +/- 11.5 uM^3 | Organelle volume in average midzonal hepatocytes, Mitochondria, Left (0.1 mg/kg/day, left vs right p 0.2529): 1288.5 +/- 236.2 uM^3 | Area of rough endoplasmic reticulum per average midzonal hepatocyte, Left (0.1 mg/kg/day, p vs vehicle 0.0001, left vs right 0.0001): 29889 +/- 1117 uM^2 | Area of smooth endoplasmic reticulum per average midzonal hepatocyte, Left (0.1 mg/kg/day, p vs vehicle 0.0703, left vs right 0.0018): 18688 +/- 498 uM^2 | Organelle volume in average midzonal hepatocytes, Lipids, Right (0.1 mg/kg/day): 83.8 +/- 19.7 uM^3 | Organelle volume in average midzonal hepatocytes, Lysosomes, Right (0.1 mg/kg/day): 187.6 +/- 14.8 uM^3 | Organelle volume in average midzonal hepatocytes, Microbodies, Right (0.1 mg/kg/day): 172.5 +/- 34.2 uM^3 | Organelle volume in average midzonal hepatocytes, Mitochondria, Right (0.1 mg/kg/day): 1439.3 +/- 115.4 uM^3 | Area of rough endoplasmic reticulum per average midzonal hepatocyte, Right (0.1 mg/kg/day, p vs vehicle 0.0007): 20325 +/- 975 uM^2 | Area of smooth endoplasmic reticulum per average midzonal hepatocyte, Right (0.1 mg/kg/day, p vs vehicle 0.0725): 22747 +/- 1305 uM^2 | preservation of the RER in the right lobes (1 mg/kg/day, compared to vehicle controls): better preservation of the RER | lipid accumulation in right lobes (1 mg/kg/day, compared to vehicle controls, p<0.001): reduced lipid accumulation | Organelle volume in average midzonal hepatocytes, Lysosomes, Left (1.0 mg/kg/day, left vs right p 0.0002): 48.8 +/- 10.9 uM^3 | Organelle volume in average midzonal hepatocytes, Lipids, Left (1.0 mg/kg/day, left vs right p 0.0044): 15.6 +/- 2.8 uM^3 | Organelle volume in average midzonal hepatocytes, Microbodies, Left (1.0 mg/kg/day, left vs right p 0.1111): 94.2 +/- 10.4 uM^3 | Organelle volume in average midzonal hepatocytes, Mitochondria, Left (1.0 mg/kg/day, left vs right p 0.1996): 1284.8 +/- 178.9 uM^3 | Area of rough endoplasmic reticulum per average midzonal hepatocyte, Left (1.0 mg/kg/day, p vs vehicle 0.0000, left vs right 0.0002): 32091 +/- 1225 uM^2 | Area of smooth endoplasmic reticulum per average midzonal hepatocyte, Left (1.0 mg/kg/day, p vs vehicle 0.0574, left vs right 0.0024): 17876 +/- 642 uM^2 | lysosomes in right lobar hepatocytes (1 mg/kg/day, p<0.05): reduced | microbodies in right lobar hepatocytes (1 mg/kg/day, p=0.07): reduced | Organelle volume in average midzonal hepatocytes, Lipids, Right (1.0 mg/kg/day): 47.8 +/- 11.3 uM^3 | Organelle volume in average midzonal hepatocytes, Lysosomes, Right (1.0 mg/kg/day): 160.0 +/- 23.8 uM^3 | Organelle volume in average midzonal hepatocytes, Microbodies, Right (1.0 mg/kg/day): 136.6 +/- 41.3 uM^3 | Organelle volume in average midzonal hepatocytes, Mitochondria, Right (1.0 mg/kg/day): 1440.6 +/- 318.7 uM^3 | Area of rough endoplasmic reticulum per average midzonal hepatocyte, Right (1.0 mg/kg/day, p vs vehicle 0.0003): 20839 +/- 1612 uM^2 | Area of smooth endoplasmic reticulum per average midzonal hepatocyte, Right (1.0 mg/kg/day, p vs vehicle 0.0858): 23154 +/- 193 uM^2 | mitochondria (FK 506-infused lobes): neither enlarged (Table V) nor abnormal | number of microbodies, lysosomes and small lipid containing vacuoles (FK 506-infused lobes): near normal levels | amount of rough endoplasmic reticulum (infused lobes): restored relative to controls | dilatation and disruption of the cisternae (infused lobes): minimal | ultrastructure of hepatocytes exposed to infused FK 506 (left lobes, even at the smallest doses): almost normal even at the smallest doses | changes in the hepatocytes in the right lobes (low doses of FK 506, compared with controls): did not differ greatly from those seen in the controls
